Values after ≈ are worked out from the molar mass of the structure shown.
Assays:
[1] = tested on: Mycobacterium tuberculosis; test: Substrate activity at Mycobacterium tuberculosis Ddn expressed in Escherichia coli BL21 (DE3) assessed as oxidation of F420H2 by measuring Kcat by spectrophotometric analysis
[2] = tested on: Mycobacterium tuberculosis; test: Substrate activity at Mycobacterium tuberculosis Ddn expressed in Escherichia coli BL21 (DE3) assessed as oxidation of F420H2 by measuring Km by spectrophotometric analysis
[3] = tested on: Mycobacterium tuberculosis; test: Substrate activity at Mycobacterium tuberculosis Ddn expressed in Escherichia coli BL21 (DE3) assessed as oxidation of F420H2 by measuring Kcat/Km by spectrophotometric analysis
[4] = Cmax in CD-1 mouse at 20 mg/kg, po administered as DMSO/PEG400 formulation measured upto 24 hrs by LC-MS/MS analysis; type: ADME, organism-based; set-up: dose 20 mg/kg, time < 24 hrs, route po; conditions: in vivo
[5] = Tmax in CD-1 mouse at 20 mg/kg, po administered as DMSO/PEG400 formulation measured upto 24 hrs by LC-MS/MS analysis; type: ADME, organism-based; conditions: in vivo
[6] = Half life in CD-1 mouse at 20 mg/kg, po administered as DMSO/PEG400 formulation measured upto 24 hrs by LC-MS/MS analysis; type: ADME, organism-based; conditions: in vivo
[7] = Oral bioavailability in CD-1 mouse at 20 mg/kg administered as DMSO/PEG400 formulation measured upto 24 hrs by LC-MS/MS analysis; type: ADME, organism-based; conditions: in vivo
[8] = Volume of distribution at steady state in CD-1 mouse at 5 mg/kg, iv administered as DMSO/PEG400 formulation measured upto 24 hrs by LC-MS/MS analysis; type: ADME, organism-based; conditions: in vivo, read-out: Vdss
[9] = Clearance in CD-1 mouse at 5 mg/kg, iv administered as DMSO/PEG400 formulation measured upto 24 hrs by LC-MS/MS analysis; type: ADME, organism-based; conditions: in vivo
[10] = Half life in CD-1 mouse at 5 mg/kg, iv administered as DMSO/PEG400 formulation measured upto 24 hrs by LC-MS/MS analysis; type: ADME, organism-based; conditions: in vivo
[11] = AUC(0 to 24 hrs) in CD-1 mouse at 20 mg/kg, po administered as DMSO/PEG400 formulation measured upto 24 hrs by LC-MS/MS analysis; type: ADME, organism-based; set-up: dose 20 mg/kg, time < 24 hrs, route po; conditions: in vivo
Mycobacterium avium = test: Antimycobacterial activity against Mycobacterium avium ATCC 25291 assessed as bacterial growth inhibition incubated for 6 days under normoxic condition by resazurin microtiter assay; type: functional; conditions: ATCC 25291, 144 h, time 6 day
[12] = tested on: Mycolicibacterium smegmatis; test: Antimycobacterial activity against Mycobacterium smegmatis mc2155 ATCC 700084 assessed as bacterial growth inhibition incubated for 24 hrs under normoxic condition by resazurin microtiter assay; type: functional
[13] = Solubility of compound in PBS at 7.4 by LC-UV analysis; type: physicochemical; conditions: pH 7.4
[14] = Solubility of compound in water by LC-UV analysis; type: physicochemical; conditions: water; read-out: solubility
[15] = tested on: Mycobacterium tuberculosis; test: Antimycobacterial activity against Mycobacterium tuberculosis H37Rv ATCC 27294 assessed as bacterial growth inhibition incubated for 5 days under normoxic condition by resazurin microtiter assay; type: functional; conditions: H37Rv ATCC 27294, 120 h, time 5 day
[16] = tested on: Mycobacterium tuberculosis; test: Antimycobacterial activity against Mycobacterium tuberculosis H37Rv ATCC 27294 assessed as bacterial growth inhibition incubated for 5 days under hypoxic condition by resazurin microtiter assay; type: functional; conditions: H37Rv ATCC 27294, 120 h, time 5 day
[17] = tested on: Mycobacterium tuberculosis; test: Antimycobacterial activity against Mycobacterium tuberculosis H37Ra ATCC 25177 assessed as bacterial growth inhibition incubated for 6 days under normoxic condition by resazurin microtiter assay; type: functional; conditions: H37Ra ATCC 25177, 144 h, time 6 day
[18] = Cmax in CD-1 mouse at 25 mg/kg, po measured upto 48 hrs by LC/MS/MS analysis; type: ADME, organism-based; set-up: time < 48 hrs, dose 25 mg/kg, route po; conditions: in vivo
[19] = AUC (0 to last) in CD-1 mouse at 25 mg/kg, po measured upto 48 hrs by LC/MS/MS analysis; type: ADME, organism-based; set-up: dose 25 mg/kg, time < 48 hrs, route po; conditions: in vivo
[20] = Tmax in CD-1 mouse at 25 mg/kg, po measured upto 48 hrs by LC/MS/MS analysis; type: ADME, organism-based; conditions: in vivo
[21] = Half life in CD-1 mouse at 25 mg/kg, po measured upto 48 hrs by LC/MS/MS analysis; type: ADME, organism-based; conditions: in vivo
[22] = Oral bioavailability in CD-1 mouse at 25 mg/kg measured upto 48 hrs by LC/MS/MS analysis; type: ADME, organism-based; conditions: in vivo
[23] = Volume of distribution at steady state in CD-1 mouse at 10 mg/kg, iv measured upto 48 hrs by LC/MS/MS analysis; type: ADME, organism-based; conditions: in vivo, read-out: Vdss
[24] = Clearance in CD-1 mouse at 10 mg/kg, iv measured upto 48 hrs by LC/MS/MS analysis; type: ADME, organism-based; conditions: in vivo
[25] = Half life in CD-1 mouse at 10 mg/kg, iv measured upto 48 hrs by LC/MS/MS analysis; type: ADME, organism-based; conditions: in vivo
[26] = tested on: Mycobacterium tuberculosis; test: Antimycobacterial activity against Mycobacterium tuberculosis H37Rv ATCC 27294 assessed as bacterial growth inhibition at 4 to 32 ug/ml incubated for 5 days under hypoxic condition by resazurin microtiter assay relative to control; type: functional; conditions: dose 4-32 µg/ml; time 5 day

| Compound | kcat [1] | Km [2] [µM] | kcat/Km [3] [M⁻¹ s⁻¹] | MIC (Mycobacterium avium) [µg/mL] | MIC [12] [µg/mL] | MIC [15] [µg/mL] | also measured |
| --- | --- | --- | --- | --- | --- | --- | --- |
| O=C(NCc1ccc(OC(F)(F)F)cc1)c1ncc([N+](=O)[O-])[nH]1 | 2.1 10^-4/s | 31 | 6.9 |  |  |  |  |
| O=c1c2nc([N+](=O)[O-])cn2ccn1Cc1ccc(-c2ccc(OC(F)(F)F)cc2)cn1 |  |  |  |  |  |  | Cmax [4]: 3600 ng/mL; Tmax [5]: 5.3 h; half-life [6]: 366 min; bioavailability [7]: 45%; Vd [8]: 1.3 L/kg; clearance [9]: 2.06 mL/min/kg; half-life [10]: 432 min; AUC(0-t) at 24 h [11]: 45900 ng·h/mL |
| Cc1c(C)n2cc([N+](=O)[O-])nc2c(=O)n1Cc1ccc(OC(F)(F)F)cc1 | 6.9 10^-3/s | 28 | 244 | > 32 | > 32 |  |  |
| O=C1c2nc([N+](=O)[O-])cn2CN1Cc1ccccc1 |  |  |  |  |  | > 32 | solubility [13]: 5.9 µM (≈ 1.52 µg/mL); solubility [14]: 5.9 µM (≈ 1.52 µg/mL); MIC [16]: > 32 µg/mL |
| O=[N+]([O-])c1cn2c(n1)OC[C@@H](OCc1ccc(OC(F)(F)F)cc1)C2 [PRETOMANID] | 9.3 10^-3/s | 7.3 | 1260 | > 32 | > 32 |  | MIC [17]: ≤ 0.016 µg/mL; Cmax [18]: 6000 ng/mL; AUC(0-t) at 48 h [19]: 50900 ng·h/mL; Tmax [20]: 2 h; half-life [21]: 162 min; bioavailability [22]: 100%; Vd [23]: 1.6 L/kg; clearance [24]: 12.1 mL/min/kg; half-life [25]: 96 min |
| Cc1cn2cc([N+](=O)[O-])nc2c(=O)n1Cc1ccc(OC(F)(F)F)cc1 |  |  |  | > 32 | > 32 | > 32 | MIC [17]: 4 µg/mL (≈ 10.9 µM) |
| O=c1c2nc([N+](=O)[O-])cn2ccn1Cc1cncc(-c2ccc(OC(F)(F)F)cc2)c1 | 1.2 10^-2/s | 2.6 | 4470 |  |  |  | inhibition (INH) [26]: 82% |
| Cc1ccc(Cn2ccn3cc([N+](=O)[O-])nc3c2=O)cc1 | 4.3 10^-3/s | 2.5 | 1710 |  |  |  |  |
| O=C1CCn2cc([N+](=O)[O-])nc2N1Cc1ccccc1 |  |  |  |  |  | > 32 | solubility [13]: 142 µM (≈ 38.7 µg/mL); solubility [14]: 137 µM (≈ 37.3 µg/mL); MIC [16]: > 32 µg/mL |
| O=c1c2nc([N+](=O)[O-])cn2ccn1Cc1ccc(N2CCCCC2)cc1 | 1.7 10^-3/s | 2.2 | 773 |  |  |  |  |

Reference: ChEMBL document CHEMBL5104178, “Nitroimidazopyrazinones with Oral Activity against Tuberculosis and Chagas Disease in Mouse Models of Infection” (J Med Chem, 2022)
